Assay results as given in patent US11420944B2, “Voltage-dependent t-type calcium channel blocker” (Nippon Chemiphar Co., Ltd., priority 2016, dated 2022).
Like-named read-outs stand apart in the source and are kept apart here.

What was measured:
CYP3A4 = target: T1, CYP3A4 (Homo sapiens, UniProt P08684); test: Evaluation of CYP3A4 activity inhibitory action; assay type: in vitro ADME; settings: Human CYP3A4BR EasyCYP Bactosomes, 7-Benzyloxy-4-(trifluoromethyl)-coumarin
T1 construct: purchased Cypex, Ltd; host or cells: E. coli membranes (Bactosomes)
T1 sequence (P08684 whole entry): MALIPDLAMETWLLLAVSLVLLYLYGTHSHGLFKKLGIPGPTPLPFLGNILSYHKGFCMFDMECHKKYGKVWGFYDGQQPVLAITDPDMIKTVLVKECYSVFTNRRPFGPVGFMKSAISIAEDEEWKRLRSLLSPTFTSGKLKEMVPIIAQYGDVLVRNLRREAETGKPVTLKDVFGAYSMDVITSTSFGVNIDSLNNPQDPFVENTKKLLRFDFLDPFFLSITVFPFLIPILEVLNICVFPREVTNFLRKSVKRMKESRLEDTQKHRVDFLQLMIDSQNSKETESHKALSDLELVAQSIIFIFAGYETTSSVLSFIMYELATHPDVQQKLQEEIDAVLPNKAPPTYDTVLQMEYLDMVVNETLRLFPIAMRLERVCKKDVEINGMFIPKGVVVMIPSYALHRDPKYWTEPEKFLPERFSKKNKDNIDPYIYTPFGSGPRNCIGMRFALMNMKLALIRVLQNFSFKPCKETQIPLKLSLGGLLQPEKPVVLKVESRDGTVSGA
Procedure: Evaluation of CYP3A4 Activity Inhibitory Action
To a 50 mM potassium phosphate buffer solution (pH 7.4), 5 nM Human CYP3A4BR EasyCYP Bactosomes (Cypex, Ltd.), 50 μM 7-Benzyloxy-4-(trifluoromethyl)-coumarin, cofactor mix (0.0081 mM β-NADP^+, 0.4 mM G-6-P, 0.4 mM MgCl2, and 0.2 U/mL G-6-P DH(Y)), and 0.01% Pluronic F-127 were added, and the mixture was incubated for 45 minutes at 37° C. The reaction was initiated by adding the cofactor mix. After the incubation, 0.5 M Tris base/acetonitrile (20:80) was added thereto as a reaction terminating liquid, and the resulting mixture was stirred. Subsequently, the fluorescence intensity (excitation: 405 nm, emission: 535 nm) was measured. The reaction was carried out in duplicate. The results are presented as the inhibition rate at 10 μM of the test compound.

human Cav3.2 channels [1] = target: T2, human Cav3.2 channels (Homo sapiens, UniProt O95180); test: Intracellular calcium concentration measurement (Fluo-4 AM) in stable cells expressing human Cav3.2 channels, buffer A / buffer B; assay type: cell-based
T2 construct: expressed in transfected cells; host or cells: HEK293 cells (ATCC No. CRL-1573), plasmid pcDNA3.1(+)
T2 sequence (O95180 whole entry): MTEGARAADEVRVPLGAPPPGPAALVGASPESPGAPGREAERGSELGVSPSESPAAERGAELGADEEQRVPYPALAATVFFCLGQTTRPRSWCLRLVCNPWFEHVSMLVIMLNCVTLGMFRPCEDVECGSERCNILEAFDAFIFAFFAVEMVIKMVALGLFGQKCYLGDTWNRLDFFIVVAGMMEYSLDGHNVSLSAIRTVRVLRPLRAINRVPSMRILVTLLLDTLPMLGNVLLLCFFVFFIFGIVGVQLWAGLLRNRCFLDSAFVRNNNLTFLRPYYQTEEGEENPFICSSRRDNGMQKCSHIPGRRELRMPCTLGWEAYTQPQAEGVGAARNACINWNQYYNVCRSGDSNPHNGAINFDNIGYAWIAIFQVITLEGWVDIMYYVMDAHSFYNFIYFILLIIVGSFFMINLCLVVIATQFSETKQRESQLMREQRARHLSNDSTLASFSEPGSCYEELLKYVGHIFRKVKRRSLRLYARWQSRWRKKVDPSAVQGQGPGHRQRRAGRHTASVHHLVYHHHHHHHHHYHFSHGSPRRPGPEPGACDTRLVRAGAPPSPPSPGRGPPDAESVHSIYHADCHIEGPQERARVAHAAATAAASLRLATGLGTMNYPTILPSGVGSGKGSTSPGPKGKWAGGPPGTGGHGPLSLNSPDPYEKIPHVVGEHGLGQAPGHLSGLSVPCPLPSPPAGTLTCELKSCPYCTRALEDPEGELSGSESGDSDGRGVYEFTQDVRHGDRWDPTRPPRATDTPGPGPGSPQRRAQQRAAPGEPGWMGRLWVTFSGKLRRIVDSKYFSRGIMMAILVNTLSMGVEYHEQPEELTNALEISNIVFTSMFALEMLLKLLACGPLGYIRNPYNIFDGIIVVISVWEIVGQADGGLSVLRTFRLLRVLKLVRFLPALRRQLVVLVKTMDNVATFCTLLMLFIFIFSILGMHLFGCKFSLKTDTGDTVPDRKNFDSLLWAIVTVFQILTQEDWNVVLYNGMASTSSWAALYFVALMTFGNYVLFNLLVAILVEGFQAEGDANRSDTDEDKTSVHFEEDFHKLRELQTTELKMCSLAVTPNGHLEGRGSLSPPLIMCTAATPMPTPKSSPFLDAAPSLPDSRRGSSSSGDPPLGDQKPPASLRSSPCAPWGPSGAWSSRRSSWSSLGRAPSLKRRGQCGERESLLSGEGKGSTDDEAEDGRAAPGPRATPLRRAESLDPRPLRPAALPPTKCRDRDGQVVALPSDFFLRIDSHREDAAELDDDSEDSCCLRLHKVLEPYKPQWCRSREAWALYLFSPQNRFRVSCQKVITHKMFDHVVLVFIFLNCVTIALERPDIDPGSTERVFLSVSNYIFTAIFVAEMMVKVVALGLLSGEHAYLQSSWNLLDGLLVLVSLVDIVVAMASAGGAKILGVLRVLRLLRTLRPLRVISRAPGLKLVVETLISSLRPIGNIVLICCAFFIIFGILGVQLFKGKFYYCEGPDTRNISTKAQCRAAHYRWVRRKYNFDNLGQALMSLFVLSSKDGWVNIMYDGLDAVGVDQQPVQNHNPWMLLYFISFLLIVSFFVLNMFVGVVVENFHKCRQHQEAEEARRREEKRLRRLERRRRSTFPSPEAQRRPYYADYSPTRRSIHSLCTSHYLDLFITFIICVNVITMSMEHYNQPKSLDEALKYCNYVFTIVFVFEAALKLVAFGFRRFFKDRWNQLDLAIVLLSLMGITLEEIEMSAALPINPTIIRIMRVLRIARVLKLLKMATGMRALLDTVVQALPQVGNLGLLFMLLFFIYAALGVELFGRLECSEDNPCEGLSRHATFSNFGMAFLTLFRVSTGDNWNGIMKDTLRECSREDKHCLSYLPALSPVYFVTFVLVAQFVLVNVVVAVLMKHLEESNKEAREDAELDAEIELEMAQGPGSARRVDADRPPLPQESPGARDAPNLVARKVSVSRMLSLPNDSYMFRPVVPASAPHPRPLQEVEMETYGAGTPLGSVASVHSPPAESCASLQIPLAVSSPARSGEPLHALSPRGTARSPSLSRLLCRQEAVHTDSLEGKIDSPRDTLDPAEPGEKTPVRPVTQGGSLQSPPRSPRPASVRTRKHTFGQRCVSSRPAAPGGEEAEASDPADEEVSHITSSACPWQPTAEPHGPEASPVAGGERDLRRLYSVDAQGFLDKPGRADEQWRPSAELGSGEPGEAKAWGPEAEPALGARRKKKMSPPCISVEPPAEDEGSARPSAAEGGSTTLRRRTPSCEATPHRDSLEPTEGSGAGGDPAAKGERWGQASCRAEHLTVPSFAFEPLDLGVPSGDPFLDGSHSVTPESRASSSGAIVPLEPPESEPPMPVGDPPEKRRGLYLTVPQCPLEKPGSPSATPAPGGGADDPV
Outline: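 State-dependent Cav3.2 inhibition compared in two buffers differing in potassium equilibrium potential (−92 vs −110 mV). Stable HEK293 line, Fluo-4 dye; compound 15 min, room temperature, dark, then KCl addition (83.8 or 91.8 mM) triggers calcium influx read 10 s; IC50 from peak increment over baseline.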

human Cav3.2 channels [2] = target: T2, human Cav3.2 channels; test: Electrophysiological evaluation, whole-cell patch-clamp with automatic patch-clamp system; assay type: cell-based; settings: 0.3 μM, holding potential −80 mV; read-out: Cav3.2 channel current inhibition ratio at 0.3 μM of test compound (holding potential −80 mV)
Procedure: Electrophysiological Evaluation
Stable cell line expressing human Cav3.2 channels, which had been produced by Test method (1) of Example 140, was seeded in a 10-cm dish using DMEM medium containing 10% FBS, and the cells were cultured for 24 hours or longer under the conditions of 37° C. and 5% CO2. The cells were detached using Accutase and were used after being suspended in ice-cold extracellular solution. The Cav3.2 channel current was measured by the Whole-cell patch-clamp method using an automatic patch-clamp system (Port-a-Patch; Nanion Technologies GmbH, EPC-10; HEKA Elektronik GmbH, Patchmaster; HEKA Elektronik GmbH) and buffers described below. Measurement of the Cav3.2 channel current was carried out at room temperature, and the measurement conditions were set as follows: holding potential: −80 mV, depolarization potential: −20 mV, depolarization time: 100 msec, and depolarization frequency: 10 sec. The Cav3.2 channel current was defined as the peak value of the inward current observed when depolarization occurred at −20 mV.
For a test compound, a DMSO solution was diluted 1,000 times with extracellular solution, and thus a solution having an intended concentration was produced. The test compound was applied using an extracellular perfusion system (Nanion Technologies GmbH) until the Cav3.2 channel current was stabilized, and five concentrations at the maximum from the low-concentration side were cumulatively applied. The inhibition ratio of the test compound was calculated from the current value immediately before the application of the test compound and the change rate of the Cav3.2 channel current after the application of the test compound (conditions for a holding potential of −80 mV: test compound concentration of 0.3 μM, conditions for a holding potential of −100 mV: test compound concentration of 3 μM).
Extracellular solution: 135 mM NaCl, 4 mM KCl, 1 mM MgCl2, 5 mM CaCl2, 5 mM D-Glucose, and 10 mM HEPES, pH 7.4
Internal solution for electrode: 10 mM NaCl, 10 mM HEPES, 50 mM CsCl, 60 mM CsF, and 20 mM EGTA, pH 7.2

[3] = Tables 2 to 6, buffer A, equilibrium potential of potassium −92 mV, read-out: Inhibitory action of buffer A (inactivated state)

Row | SMILES | CYP3A4 activity inhibition ratio at 10 μM of test compound (CYP3A4) [%] | IC50 (human Cav3.2 channels [1]; [3]) [nM] | inhibition at 0.3 µM (human Cav3.2 channels [2]) [%] | IC50 (human Cav3.2 channels [1]; Table 1, buffer A, equilibrium potential of potassium −92 mV, read-out: Inhibitory action of buffer A (inactivated state)) [nM] | IC50 (human Cav3.2 channels [1]; Table 1, buffer B, equilibrium potential of potassium −110 mV, read-out: Inhibitory action of buffer B (resting state or closed state)) [nM]
1 | C[C@@H](NC(=O)[C@H]1C[C@@H]1c1nc2ccccc2[nH]1)c1cc2cc(C(F)(F)F)ccc2o1 [Example 109, (1S,2S)-2-(1H-benzo[d]imidazol-2-yl)-N—((R)-1-(5-(trifluoromethyl)benzofuran-2-yl)ethyl)cyclopropane-1-carboxamide] | 24.1 | 100 to 1000 | – | – | –
2 | C[C@@H](NC(=O)[C@H]1C[C@@H]1c1nc2ccccc2[nH]1)c1ccc(C(=O)N2CCCC2)s1 [Example 33, Trans-2-(1H-benzo[d]imidazol-2-yl)-N—((R)-1-(5-(pyrrolidine-1-carbonyl)thiophen-2-yl)ethyl)cyclopropane-1-carboxamide] | −12.8 | 100 to 1000 | – | – | –
3 | CCN(CC)C(=O)c1ccc([C@@H](C)NC(=O)C2CC2c2nc3ccccc3[nH]2)s1 (stereo in doubt) [Example 32, Trans-5-((1R)-1-(2-(1H-benzo[d]imidazol-2-yl)cyclopropane-1-carboxamido)ethyl)-N,N-diethylthiophene-2-carboxamide] | 23.3 | 100 to 1000 | – | – | –
4 | CCn1c(C2CC2C(=O)N[C@H](C)c2cnc(OCC(F)(F)F)s2)nc2ccccc21 (stereo partly drawn) [Example 57, Trans-2-(1-ethyl-1H-benzo[d]imidazol-2-yl)-N—((R)-1-(2-(2,2,2-trifluoroethoxy)thiazol-5-yl)ethyl)cyclopropane-1-carboxamide] | −1.4 | – | – | – | –
5 | C[C@@H](NC(=O)[C@H]1C[C@@H]1c1nc2cc(F)ccc2[nH]1)c1cc2cc(F)ccc2o1 [Example 125, (1S,2S)-2-(5-fluoro-1H-benzo[d]imidazol-2-yl)-N—((R)-1-(5-fluorobenzofuran-2-yl)ethyl)cyclopropane-1-carboxamide] | 25.0 | ≤ 100 | – | – | –
6 | C[C@H](c1cc2ccc(F)cc2o1)N(C)C(=O)[C@H]1C[C@@H]1c1nc2ccccc2[nH]1 [Example 129, (1S,2S)-2-(1H-benzo[d]imidazol-2-yl)-N—((R)-1-(6-fluorobenzofuran-2-yl)ethyl)-N-methylcyclopropane-1-carboxamide] | 56.0 | 100 to 1000 | – | – | –
7 | C[C@@H](NC(=O)C1CC1c1nccn1C)c1ccc(OCC(F)(F)F)s1 (mixture of isomers) [Example 20, Trans-2-(1-methyl-1H-imidazol-2-yl)-N—((R)-1-(5-(2,2,2-trifluoroethoxy)thiophen-2-yl)ethyl)cyclopropane-1-carboxamide] | 27.4 | 1000 to 10000 | – | – | –
8 | CC(C)[C@@H](NC(=O)[C@H]1C[C@@H]1c1nc2ccccc2[nH]1)c1cc2ccc(F)cc2o1 [Example 124, (1S,2S)-2-(1H-benzo[d]imidazol-2-yl)-N—((R)-1-(6-fluorobenzofuran-2-yl)-2-methylpropyl)cyclopropane-1-carboxamide] | 28.6 | ≤ 100 | – | – | –
9 | C[C@@H](NC(=O)[C@H]1C[C@@H]1c1nc2ccccc2[nH]1)c1ccc2cc[nH]c2c1 [Example 58, (1S,2S)—N—((R)-1-(1H-indol-6-yl)ethyl)-2-(1H-benzo[d]imidazol-2-yl)cyclopropane-1-carboxamide] | 53.5 | 100 to 1000 | – | – | –
10 | C[C@@H](NC(=O)[C@H]1C[C@@H]1c1nc2ccccc2[nH]1)c1cc2ccc(C(F)(F)F)cc2o1 [Example 123, (1S,2S)-2-(1H-benzo[d]imidazol-2-yl)-N—((R)-1-(6-(trifluoromethyl)benzofuran-2-yl)ethyl)cyclopropane-1-carboxamide] | 11.7 | ≤ 100 | – | – | –
11 | C[C@@H](NC(=O)C1CC1c1nc2ccccc2[nH]1)c1ccc(C(=O)OC(C)(C)C)s1 (stereo partly drawn) [Example 25, Trans-5-((1R)-1-(2-(1H-benzo[d]imidazol-2-yl)cyclopropane-1-carboxamido)ethyl)thiophene-2-carboxylic acid tert-butyl ester] | 8.7 | – | – | – | –
12 | C[C@@H](NC(=O)C1CC1c1nc(-c2ccccn2)c[nH]1)c1ccc(OCC(F)(F)F)s1 (mixture of isomers) [Example 39, Trans-2-(4-(pyridin-2-yl)-1H-imidazol-2-yl)-N—((R)-1-(5-(2,2,2-trifluoroethoxy)thiophen-2-yl)ethyl)cyclopropane-1-carboxamide] | – | 100 to 1000 | 50 | – | –
13 | C[C@@H](NC(=O)Cc1ccc(C2CC2)cc1)c1ccc(OCC(F)(F)F)cn1 [TTA-A2, reference compound] | 55.7 | – | – | – | –

Next, values leading:

Row | CYP3A4 activity inhibition ratio at 10 μM of test compound (CYP3A4) [%] | IC50 (human Cav3.2 channels [1]; [3]) [nM] | inhibition at 0.3 µM (human Cav3.2 channels [2]) [%] | IC50 (human Cav3.2 channels [1]; Table 1, buffer A, equilibrium potential of potassium −92 mV, read-out: Inhibitory action of buffer A (inactivated state)) [nM] | IC50 (human Cav3.2 channels [1]; Table 1, buffer B, equilibrium potential of potassium −110 mV, read-out: Inhibitory action of buffer B (resting state or closed state)) [nM] | SMILES
14 | 23.6 | 100 to 1000 | 32 | – | – | C[C@@H](NC(=O)[C@@H]1CCN(CC(=O)C(C)(C)C)C1)c1ccc(OCC(F)(F)F)s1 [Example 43, (R)-1-(3,3-dimethyl-2-oxobutyl)-N—((R)-1-(5-(2,2,2-trifluoroethoxy)thiophen-2-yl)ethyl)pyrrolidine-3-carboxamide]
15 | −1.1 | ≤ 100 | – | – | – | CCn1c(C2CC2C(=O)N[C@H](C)c2ccc(OCC(F)(F)F)s2)nc2ccccc21 (single isomer, unassigned) [Example 54]
16 | 51.1 | 100 to 1000 | – | – | – | CC(C(=O)Nc1ccccc1)N1CC[C@@H](C(=O)N[C@H](C)c2ccc(OCC(F)(F)F)s2)C1 (stereo partly drawn) [Example 24, (3R)-1-(1-oxo-1-(phenylamino)propan-2-yl)-N—((R)-1-(5-(2,2,2-trifluoroethoxy)thiophen-2-yl)ethyl)pyrrolidine-3-carboxamide]
17 | 84.4 | – | – | 100 to 1000 | 1000 to 10000 | C[C@@H](NC(=O)[C@@H]1CCN(c2nc3ccccc3[nH]2)C1)c1ccc(OCC(F)(F)F)s1 [Example 12]
18 | 7.0 | 100 to 1000 | – | – | – | C[C@@H](NC(=O)C1CC1c1nc(-c2ccccc2)c[nH]1)c1ccc(OCC(F)(F)F)s1 (single isomer, unassigned) [Example 31A]
19 | 3.0 | – | – | – | – | C[C@@H](NC(=O)C1CC1c1nc2cc(Cl)ccc2[nH]1)c1ccc(OCC(F)(F)F)s1 (stereo partly drawn) [Example 53, Trans-2-(5-chloro-1H-benzo[d]imidazol-2-yl)-N—((R)-1-(5-(2,2,2-trifluoroethoxy)thiophen-2-yl)ethyl)cyclopropane-1-carboxamide]
20 | 23.3 | 100 to 1000 | – | – | – | C[C@@H](NC(=O)C1CC1c1c[nH]c2ccccc12)c1ccc(OCC(F)(F)F)s1 (single isomer, unassigned) [Example 21B]
21 | 31.8 | – | – | – | – | C[C@@H](NC(=O)[C@@H]1CCN(CC(=O)Nc2ccccc2)C1)c1ccc(OCC(F)(F)F)s1.Cl [Example 17]
22 | 16.9 | 100 to 1000 | – | – | – | C[C@@H](NC(=O)C1CC1c1c[nH]c2ccccc12)c1ccc(OCC(F)(F)F)s1 (single isomer, unassigned) [Example 21A]
23 | 19.6 | – | – | – | – | C[C@@H](NC(=O)C1CC1c1ccc2ccccc2n1)c1ccc(OCC(F)(F)F)s1 (stereo partly drawn) [Example 34, Trans-2-(quinolin-2-yl)-N—((R)-1-(5-(2,2,2-trifluoroethoxy)thiophen-2-yl)ethyl)cyclopropane-1-carboxamide]
